Results as given in patent US11827703B2, “Compositions and methods related to anti-CD19 antibody drug conjugates” (LegoChem Biosciences, Inc., priority 2018, dated 2023).
Changes are numbered by the printed parent chain.

What was measured:
WSU-DLCL2 = test: Anti-proliferation assay (CellTiter-Glo), WSU-DLCL2; type: cell-based; settings: WSU-DLCL2, 96 hour treatment
Procedure: (§1) Commercially available 6 B cell lymphoma cancer cell lines DOHH-2 (DSMZ, #ACC 47), NALM-6 (DSMZ, #ACC 58), Ramos (ECACC, #85030802), SU-DHL-6 (ATCC, #CRL-2959), WSU-DLCL2 (DSMZ, #ACC 575) and WSU-NHL (DSMZ, #ACC 58) were used. SG2057 was used as the drug, free toxin. Each of the cancer cell lines was seeded in a 96-well plate at 2000 to 10000 per well for the 96 hour treatment group, incubated for 2 hours, and then treated with drug and ADC at a concentration of from 0.00025 to 100 nM (5-fold times serial dilutions). After 96 hours, the number of living cells was quantified using CellTiter-Glo Luminescent cell viability assay (Promega-G7573). Inhibition rate (IR) of the drug and ADC were determined by the following formula: IR (%)=(1−(RLU compound−RLU blank)/(RLU control−RLU blank))*100%. The inhibitions of different dose of samples were calculated in Excel file, and then were used to plot inhibition curve and evaluate related parameters, such as Bottom (%), Top (%) and Relative IC50. The IC50 for each experiment and treatment was calculated (See table below).

NALM6 = test: Anti-proliferation assay (CellTiter-Glo), NALM6; type: cell-based, human; settings: NALM6, 96 hour treatment
Procedure: as §1

DOHH2 = test: Anti-proliferation assay (CellTiter-Glo), DOHH2; type: cell-based; settings: DOHH2, 96 hour treatment
Procedure: as §1

WSU-NHL = test: Anti-proliferation assay (CellTiter-Glo), WSU-NHL; type: cell-based; settings: 96 hour treatment
Procedure: as §1

SU-DHL-6 = test: Anti-proliferation assay (CellTiter-Glo), SU-DHL-6; type: cell-based, human; settings: SU-DHL-6, 96 hour treatment
Procedure: as §1

Ramos = test: Anti-proliferation assay (CellTiter-Glo), Ramos; type: cell-based, human; settings: 96 hour treatment
Procedure: as §1

[1] = tested on: Ramos Burkitt's lymphoma cells; test: Ramos non-Hodgkin lymphoma xenograft model; settings: Ramos s.c. xenograft, i.v. treatment
Procedure: Anti-tumor activity of anti-CD19 (9G8) Antibody Drug Conjugate was evaluated in immunodeficient CB-17 scid mice subcutaneously engrafted with Ramos Burkitt's lymphoma cells.
CB17-SCID mice (Charles River), aged 7 weeks, were implanted subcutaneously (s.c.) in the right flank with 5×10^6 Ramos cells (obtained from ATCC). Tumor volumes (calculated using the formula TV=(0.5×[length×width^2]) were measured by digital caliper 3 times a week and mice were recruited for treatment when tumor volumes reached 200-250 mm^3. Mice were assigned to different groups (see table below) in order to obtain homogeneous mean tumor volumes between cohorts (n=7-8 mice per group. Mean tumor volume: hIgG1 control 1 mg/kg, 1 inj.: 243 mm^3±26; anti-CD19 CaaX 1 mg/kg, 1 inj.: 233 mm^3±18; hIgG1 ADC 1 mg/kg, 1 inj.: 224 mm^3±20; anti CD19 ADC 0.33 mg/kg, 1 inj.: 242 mm^3±28; anti CD19 ADC 0.66 mg/kg, 1 inj.: 234 mm^3±23; anti CD19 ADC 1 mg/kg, 1 inj.: 234 mm^3±31; anti CD19 ADC 0.33 mg/kg 1 inj./week during 3 weeks: 251 mm^3±25; rituximab 6 mg/kg, 1 inj.: 242 mm^3±31). Single dose or multiple dose (only for cohort anti-CD19 ADC 0.33 mg/kg 1×/week, 3 weeks) treatments were injected i.v. in the tail vein. Mice were then monitored for body weight 3 times a week and for tumor growth 3 times a week until the endpoint of the experiment (tumor volume=1500 mm^3).

cynomolgus CD19 = test: FACS binding to CHO cell line transfected with cynomolgus CD19; design: species or system cynomolgus monkey; settings: transfected CHO cynoCD19 cells, 10 to 0.01 μg/mL
Procedure: The ability of the anti-CD19 antibodies to bind human and/or cynomolgus monkey CD19 was evaluated.
In particular, the human IgG1 5F5, 7F11, 9G8, F6, 7F1, and 10D8 anti-CD19 antibodies were evaluated for their abilities to bind a CHO cell line transfected with cynomolgus CD19 and a negative control cell line (CHO). All incubations were prepared in FACS buffer (PBS, BSA 2%) at 4° C. Fc receptors on B cells were blocked with 10% mouse serum. Four doses of hIgG1 were tested: 10, 1, 0.1 and 0.01 μg/mL.

[2] = tested on: human B lymphocyte cell lines: Raji, Ramos, Nalm6, Su-DHL6, Su-DHL4, and Mec2; test: FACS binding to human B lymphocyte cell lines; settings: comparison of cell lines
Procedure: The ability of various anti-CD19 antibodies of the disclosure to bind various human B lymphocyte cell lines was evaluated. In particular, the human IgG1 5F5, 7F11, 9G8, F6, 7F1, and 10D8 anti-CD19 antibodies were evaluated for their abilities to bind (i) six human B lymphocyte cell lines: Raji, Ramos, Nalm6, Su-DHL6, Su-DHL4, and Mec2, (ii) a CD19 silenced B cell line: Raji siRNA; and a negative cell line (Jurkat). All incubations were prepared in FACS buffer (PBS, BSA 2%) at 4° C. Fc receptors on B cells were blocked with 10% mouse serum. Four doses of hIgG1 were tested: 10, 1, 0.1 and 0.01 μg/mL. Cell surface bound hIgG1 were detected with a mouse anti-human IgG Fc-PE mAb.

With `C=C1C[C@H]2C=Nc3cc(OCCCCCOc4cc5c(cc4OC)C(=O)N4CC(=C)C[C@H]4C=N5)c(OC)cc3C(=O)N2C1` [Free dPBD (SG2057), SG2057] the IC50 (WSU-DLCL2) was 4 pM, the IC50 (NALM6) was 3.5 pM and the IC50 (DOHH2) was 5.4 pM. It also gave an IC50 (WSU-NHL) of 13 pM, an IC50 (SU-DHL-6) of 50 pM and an IC50 (Ramos) of 150 pM.

In the case of rituximab, the “mice reaching the tumor size endpoint (tumor volume=1500 mm^3)” value [1] is reported as “four of seven mice reached the endpoint” and the “survival to day 70” value ([1]; rituximab 6 mg/kg single) is reported as “three survived to day 70”.

B1: F6: anti-CD19 antibody, VH SEQ ID NO: 12, VL SEQ ID NO: 14 (antibody, V domains shown)
VH: EVQLVQSGAEVKKPGESLKISCKGSGYSFTSYWIGWVRQMPGKGLEWMGIIYPGDSDTRYSPSFQGQVTISADKSISTAYLQWSSLKASDTAMYYCARVWYYDFWSGADAFDIWGQGTLVTVSS
VL: EIVMTQSPATLSVSPGERATLSCRASQSVSSNLAWYQQKPGQAPRLLIYGASTRATGIPARFSGSGSGTEFTLTISSLQSEDFAVYYCQQGSLEAPQTFGQGTKVEIK
For B1, the “cross-reactivity with cynomolgus CD19” value (cynomolgus CD19) was “slightly cross-reactive”.

B2: 7F1: anti-CD19 antibody, VH SEQ ID NO: 16, VL SEQ ID NO: 18 (antibody, V domains shown)
VH: EVQLVQSGAEVKKPGESLKISCKGSGYSFTSYWIGWVRQMPGKGLEWMGIIYPGDSDTRYSPSFQGQVTISADKSISTAYLQWSSLKASDTAMYYCARGDYWTGFAYWGQGTLVTVSS
VL: QSVLTQPPSVSAAPGQKVTISCSGSSSNIGNNYVSWYQQLPGTAPKLLIYDNNKRPSGIPDRFSGSKSGTSATLGITGLQTGDEADYYCGTWDLGWNSVFGGGTKLTVL
In the case of B2, the “binding profile Nalm6 versus Raji cells” value [2] is reported as “bind better to Nalm6 than to Raji cells” and the “cross-reactivity with cynomolgus CD19” value (cynomolgus CD19) is reported as “did not bind”.

B3: 10D8: anti-CD19 antibody, VH SEQ ID NO: 20, VL SEQ ID NO: 22 (antibody, V domains shown)
VH: QVQLVQSGAEVKKPGSSVKVSCKASGGTFSSYAISWVRQAPGQGLEWMGGIIPIFGTANYAQKFQGRVTITADESTSTAYMELSSLRSEDTAVYYCARDRGYDYVWGSYRYGAFDIWGQGTLVTVSS
VL: QSALTQPASVSGSPGQSITISCTGTSSDVGGYNYVSWYQQHPGKAPKLMIYEVSNRPSGVSNRFSGSKSGNTASLTISGLQAEDEADYYCSSYDVWVPHMVFGGGTKLTVL
For B3, the “binding profile Nalm6 versus Raji cells” value [2] was “bind better to Nalm6 than to Raji cells” and the “cross-reactivity with cynomolgus CD19” value (cynomolgus CD19) was “did not bind”.

B4: 9G8: anti-CD19 antibody, VH SEQ ID NO: 6, VL SEQ ID NO: 10 (antibody, V domains shown)
VH: EVQLVQSGAEVKKPGESLKISCKGSGYSFTSYWIGWVRQMPGKGLEWMGIIYPGDSDTRYSPSFQGQVTISADKSISTAYLQWSSLKASDTAMYYCARGVSGIYNLHGFDIWGQGTLVTVSS
VL: DIQMTQSPSSLSASVGDRVTITCRASQSISSYLNWYQQKPGKAPKLLIYAASSLQSGVPSRFSGSGSGTDFTLTISSLQPEDFATYYCQQGRFGSPFTFGQGTKVEIK
B4 was tested, and the “cross-reactivity with cynomolgus CD19” value (cynomolgus CD19) was “clearly cross-reactive”.

B5: 5F5: anti-CD19 antibody, VH SEQ ID NO: 2, VL SEQ ID NO: 4 (antibody, V domains shown)
VH: B4 VH with V100I
VL: B4 VL with G91A, R92S, F93L, G94D, F97L
B5 was tested, and the “cross-reactivity with cynomolgus CD19” value (cynomolgus CD19) was “slightly cross-reactive”.

B6: 7F11: anti-CD19 antibody, VH SEQ ID NO: 6, VL SEQ ID NO: 8 (antibody, V domains shown)
VH: B4 VH
VL: B4 VL with R92M, F93W, G94D, S95N
With B6 the “cross-reactivity with cynomolgus CD19” value (cynomolgus CD19) was “slightly cross-reactive”.
